Measured values as given in ChEMBL document CHEMBL5385931, “Microascones, Decahydrofluorene-Class Alkaloids from the Marine-Derived Fungus Microascus sp. SCSIO 41821” (J Nat Prod, 2024).
Converted amounts (≈) assume the structure as drawn.

How the values were obtained:
[1] = test system: Staphylococcus aureus; experiment: Antibacterial activity against Staphylococcus aureus ATCC 6538 assessed as bacterial growth inhibition by broth microdilution method; assay type: functional
[2] = test system: Bacillus subtilis; experiment: Antibacterial activity against Bacillus subtilis BS01 assessed as bacterial growth inhibition by broth microdilution method; assay type: functional
[3] = test system: NCI-H1975; experiment: Cytotoxicity against human NCI-H1975 cells assessed as cell growth inhibition by CCK8 assay
[4] = molecular target: Receptor-type tyrosine-protein phosphatase S (Homo sapiens, UniProt Q13332); experiment: Inhibition of human PTPsigma
[5] = test system: Streptococcus iniae; experiment: Antibacterial activity against Streptococcus iniae SC41992 assessed as bacterial growth inhibition by broth microdilution method; assay type: functional
[6] = test system: HepG2; experiment: Cytotoxicity against human HepG2 cells assessed as cell growth inhibition by CCK8 assay
[7] = test system: Escherichia coli; experiment: Antibacterial activity against Escherichia coli ATCC 25922 assessed as bacterial growth inhibition by broth microdilution method; assay type: functional
[8] = molecular target: Receptor-type tyrosine-protein phosphatase F (Homo sapiens, UniProt P10586); experiment: Inhibition of human LAR
[9] = molecular target: Dual specificity protein phosphatase 3 (Homo sapiens, UniProt P51452); experiment: Inhibition of human VHR
[10] = test system: Streptococcus agalactiae; experiment: Antibacterial activity against Streptococcus agalactiae ATCC 13813 assessed as bacterial growth inhibition by broth microdilution method; assay type: functional
[11] = test system: Bacillus amyloliquefaciens; experiment: Antibacterial activity against Bacillus amyloliquefaciens GDMCC 60233 assessed as bacterial growth inhibition by broth microdilution method; assay type: functional
[12] = test system: Staphylococcus aureus; experiment: Antibacterial activity against methicillin-resistant Staphylococcus aureus SC41993 assessed as bacterial growth inhibition by broth microdilution method; assay type: functional
[13] = molecular target: T1, M-phase inducer phosphatase 2 (Homo sapiens, UniProt P30305); experiment: Inhibition of human CDC25B
T1 sequence (P30305 whole entry): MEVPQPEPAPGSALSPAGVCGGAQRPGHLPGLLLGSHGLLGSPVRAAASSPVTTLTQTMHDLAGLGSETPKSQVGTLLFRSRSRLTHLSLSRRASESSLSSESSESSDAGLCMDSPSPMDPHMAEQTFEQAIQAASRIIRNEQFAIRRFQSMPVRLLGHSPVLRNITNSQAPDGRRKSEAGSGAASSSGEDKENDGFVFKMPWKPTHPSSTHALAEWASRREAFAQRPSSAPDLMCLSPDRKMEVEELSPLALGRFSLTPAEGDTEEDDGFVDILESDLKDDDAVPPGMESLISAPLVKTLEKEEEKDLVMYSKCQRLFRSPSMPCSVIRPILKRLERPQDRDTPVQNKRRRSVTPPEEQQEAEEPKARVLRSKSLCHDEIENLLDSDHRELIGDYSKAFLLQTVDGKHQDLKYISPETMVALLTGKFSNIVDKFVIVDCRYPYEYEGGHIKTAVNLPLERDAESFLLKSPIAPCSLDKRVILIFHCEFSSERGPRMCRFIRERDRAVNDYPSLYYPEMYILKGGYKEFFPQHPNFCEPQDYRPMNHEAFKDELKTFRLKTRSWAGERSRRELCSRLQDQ

[14] = molecular target: T2, Tyrosine-protein phosphatase non-receptor type 1 (Homo sapiens, UniProt P18031); experiment: Inhibition of human PTP1B
T2 sequence (P18031 whole entry): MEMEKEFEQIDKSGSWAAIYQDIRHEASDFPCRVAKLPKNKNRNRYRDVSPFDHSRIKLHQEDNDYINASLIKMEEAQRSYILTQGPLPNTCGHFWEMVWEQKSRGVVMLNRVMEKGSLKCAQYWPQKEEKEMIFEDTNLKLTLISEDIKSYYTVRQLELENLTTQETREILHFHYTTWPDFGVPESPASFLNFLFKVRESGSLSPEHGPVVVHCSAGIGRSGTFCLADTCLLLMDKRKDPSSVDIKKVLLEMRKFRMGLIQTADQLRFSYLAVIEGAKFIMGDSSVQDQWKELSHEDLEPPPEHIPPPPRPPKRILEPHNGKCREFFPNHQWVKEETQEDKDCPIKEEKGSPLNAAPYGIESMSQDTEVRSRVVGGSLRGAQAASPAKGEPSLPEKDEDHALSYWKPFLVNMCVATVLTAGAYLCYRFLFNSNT

Sequence of Dual specificity protein phosphatase 3 (P51452 whole entry): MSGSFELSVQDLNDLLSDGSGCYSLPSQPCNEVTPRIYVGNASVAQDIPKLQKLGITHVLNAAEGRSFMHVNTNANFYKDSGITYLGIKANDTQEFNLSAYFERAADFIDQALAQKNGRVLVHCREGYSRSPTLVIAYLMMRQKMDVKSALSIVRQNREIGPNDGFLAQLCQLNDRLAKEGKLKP
Sequence of Receptor-type tyrosine-protein phosphatase F (P10586 whole entry): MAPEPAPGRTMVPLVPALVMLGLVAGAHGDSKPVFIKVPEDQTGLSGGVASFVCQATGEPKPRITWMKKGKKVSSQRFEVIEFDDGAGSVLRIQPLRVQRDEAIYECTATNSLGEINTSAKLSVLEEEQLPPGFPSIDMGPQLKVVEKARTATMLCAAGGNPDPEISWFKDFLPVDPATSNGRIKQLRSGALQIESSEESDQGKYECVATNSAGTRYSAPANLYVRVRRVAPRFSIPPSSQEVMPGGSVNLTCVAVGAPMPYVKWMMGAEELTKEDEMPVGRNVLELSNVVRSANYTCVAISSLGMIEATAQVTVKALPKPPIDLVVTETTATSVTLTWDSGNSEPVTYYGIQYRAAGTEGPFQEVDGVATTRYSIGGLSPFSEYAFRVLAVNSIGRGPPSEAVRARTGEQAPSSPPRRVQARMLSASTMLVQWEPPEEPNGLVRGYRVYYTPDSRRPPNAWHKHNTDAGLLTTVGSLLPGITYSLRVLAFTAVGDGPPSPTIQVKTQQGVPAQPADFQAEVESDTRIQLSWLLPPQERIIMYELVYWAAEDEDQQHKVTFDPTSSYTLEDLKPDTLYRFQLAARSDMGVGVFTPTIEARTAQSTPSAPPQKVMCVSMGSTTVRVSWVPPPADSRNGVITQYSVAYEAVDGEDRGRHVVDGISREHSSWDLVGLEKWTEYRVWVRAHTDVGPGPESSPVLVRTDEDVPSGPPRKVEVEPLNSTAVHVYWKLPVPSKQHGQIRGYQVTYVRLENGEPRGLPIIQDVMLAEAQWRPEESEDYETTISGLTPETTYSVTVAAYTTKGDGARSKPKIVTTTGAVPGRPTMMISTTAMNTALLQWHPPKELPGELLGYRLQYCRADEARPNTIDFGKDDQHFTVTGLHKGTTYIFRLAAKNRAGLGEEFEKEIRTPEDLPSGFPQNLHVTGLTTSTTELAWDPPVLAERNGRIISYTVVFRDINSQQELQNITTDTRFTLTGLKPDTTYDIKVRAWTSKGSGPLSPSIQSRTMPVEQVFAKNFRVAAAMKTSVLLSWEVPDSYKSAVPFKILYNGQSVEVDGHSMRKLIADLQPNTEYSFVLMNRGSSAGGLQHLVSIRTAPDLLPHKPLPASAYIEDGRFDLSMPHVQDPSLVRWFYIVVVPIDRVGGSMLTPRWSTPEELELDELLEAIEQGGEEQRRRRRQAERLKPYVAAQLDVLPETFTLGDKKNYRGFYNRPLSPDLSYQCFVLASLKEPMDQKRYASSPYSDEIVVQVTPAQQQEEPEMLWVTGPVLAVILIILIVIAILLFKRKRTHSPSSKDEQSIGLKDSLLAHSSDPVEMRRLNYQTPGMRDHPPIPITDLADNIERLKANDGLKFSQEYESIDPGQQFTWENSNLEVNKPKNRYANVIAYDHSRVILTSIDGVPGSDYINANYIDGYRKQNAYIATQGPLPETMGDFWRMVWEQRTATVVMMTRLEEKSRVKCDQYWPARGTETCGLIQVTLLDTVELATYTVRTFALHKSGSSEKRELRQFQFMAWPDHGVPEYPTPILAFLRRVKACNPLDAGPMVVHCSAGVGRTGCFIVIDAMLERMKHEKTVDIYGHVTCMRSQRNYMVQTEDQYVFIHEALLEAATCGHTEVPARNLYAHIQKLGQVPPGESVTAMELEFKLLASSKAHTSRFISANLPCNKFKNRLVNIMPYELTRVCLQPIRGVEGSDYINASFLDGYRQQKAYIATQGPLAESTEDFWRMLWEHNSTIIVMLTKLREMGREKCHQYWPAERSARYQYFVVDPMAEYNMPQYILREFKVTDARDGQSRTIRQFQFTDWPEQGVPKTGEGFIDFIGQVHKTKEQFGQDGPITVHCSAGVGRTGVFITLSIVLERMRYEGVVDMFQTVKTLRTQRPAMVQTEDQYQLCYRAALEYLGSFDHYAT
Sequence of Receptor-type tyrosine-protein phosphatase S (Q13332 whole entry): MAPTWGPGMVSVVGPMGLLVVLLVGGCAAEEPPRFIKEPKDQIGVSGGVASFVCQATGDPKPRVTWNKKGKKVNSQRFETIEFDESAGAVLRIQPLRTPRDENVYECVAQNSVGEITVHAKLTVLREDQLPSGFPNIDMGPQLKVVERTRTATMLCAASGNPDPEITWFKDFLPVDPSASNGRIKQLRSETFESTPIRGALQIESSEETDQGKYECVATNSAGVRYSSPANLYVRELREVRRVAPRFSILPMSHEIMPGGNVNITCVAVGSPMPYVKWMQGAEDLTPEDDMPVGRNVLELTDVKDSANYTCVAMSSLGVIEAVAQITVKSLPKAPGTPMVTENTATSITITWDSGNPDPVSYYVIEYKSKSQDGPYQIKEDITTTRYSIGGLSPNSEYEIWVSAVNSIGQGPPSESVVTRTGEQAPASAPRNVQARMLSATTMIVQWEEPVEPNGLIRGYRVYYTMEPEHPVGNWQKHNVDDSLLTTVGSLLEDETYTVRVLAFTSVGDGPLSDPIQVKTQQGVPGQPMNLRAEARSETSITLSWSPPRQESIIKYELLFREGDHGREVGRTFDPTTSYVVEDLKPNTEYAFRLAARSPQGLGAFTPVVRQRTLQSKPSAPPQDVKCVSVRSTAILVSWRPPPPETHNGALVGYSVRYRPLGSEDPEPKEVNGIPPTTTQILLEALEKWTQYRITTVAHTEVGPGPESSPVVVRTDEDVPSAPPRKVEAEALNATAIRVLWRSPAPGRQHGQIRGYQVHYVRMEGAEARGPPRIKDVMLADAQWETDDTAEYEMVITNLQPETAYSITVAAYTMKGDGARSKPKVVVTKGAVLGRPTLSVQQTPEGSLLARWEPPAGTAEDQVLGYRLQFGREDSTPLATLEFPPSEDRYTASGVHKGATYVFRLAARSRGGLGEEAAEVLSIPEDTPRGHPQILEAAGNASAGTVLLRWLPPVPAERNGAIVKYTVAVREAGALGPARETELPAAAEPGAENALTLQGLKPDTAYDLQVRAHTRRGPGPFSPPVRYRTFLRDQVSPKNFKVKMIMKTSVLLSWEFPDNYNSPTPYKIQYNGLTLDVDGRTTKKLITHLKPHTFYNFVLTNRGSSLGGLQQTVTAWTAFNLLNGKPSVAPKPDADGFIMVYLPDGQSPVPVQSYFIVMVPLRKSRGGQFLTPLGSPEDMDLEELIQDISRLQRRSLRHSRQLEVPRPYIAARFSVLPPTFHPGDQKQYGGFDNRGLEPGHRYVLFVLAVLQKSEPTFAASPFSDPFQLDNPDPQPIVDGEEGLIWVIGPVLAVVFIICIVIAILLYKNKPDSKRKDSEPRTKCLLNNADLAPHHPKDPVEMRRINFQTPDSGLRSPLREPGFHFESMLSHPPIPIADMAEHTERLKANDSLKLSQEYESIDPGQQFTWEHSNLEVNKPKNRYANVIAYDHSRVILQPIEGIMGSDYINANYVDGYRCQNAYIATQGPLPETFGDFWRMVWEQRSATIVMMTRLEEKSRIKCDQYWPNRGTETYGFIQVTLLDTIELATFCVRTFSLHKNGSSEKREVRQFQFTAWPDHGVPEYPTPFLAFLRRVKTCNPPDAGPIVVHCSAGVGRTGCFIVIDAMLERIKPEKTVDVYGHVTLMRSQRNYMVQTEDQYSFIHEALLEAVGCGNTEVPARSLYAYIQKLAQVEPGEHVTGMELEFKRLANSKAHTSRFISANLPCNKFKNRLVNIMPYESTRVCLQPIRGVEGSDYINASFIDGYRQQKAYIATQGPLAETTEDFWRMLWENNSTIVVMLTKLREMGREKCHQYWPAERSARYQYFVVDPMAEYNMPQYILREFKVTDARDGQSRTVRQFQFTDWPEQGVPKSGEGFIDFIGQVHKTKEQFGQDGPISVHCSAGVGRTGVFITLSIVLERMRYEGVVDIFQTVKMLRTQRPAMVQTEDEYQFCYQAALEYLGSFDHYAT

## CC1=C[C@@]2(C)[C@@H]3C(=O)[C@@]45C(=O)N[C@@](O)(Cc6ccc(cc6)O[C@@H]6[C@H]7[C@@H](C[C@H](CO)C[C@@H]7C)[C@H]1[C@H]63)[C@H]4CC=C(C)[C@@H]25
[1]
  MIC: > 100 µg/mL
[2]
  MIC: 100 µg/mL (≈ 184 µM)
[3]
  IC50: 58 µM
[4]
  IC50: > 200 µM
[5]
  MIC: 100 µg/mL (≈ 184 µM)
[6]
  IC50: > 80 µM
[7]
  MIC: 100 µg/mL (≈ 184 µM)
[8]
  IC50: > 200 µM
[9]
  IC50: > 200 µM
[10]
  MIC: > 100 µg/mL
[11]
  MIC: > 100 µg/mL
[12]
  MIC: > 100 µg/mL
[13]
  IC50: > 200 µM
[14]
  IC50: > 200 µM
